What was measured:
[1] = In vitro skin penetration of methyl salicylate in flow diffusion cell (Experiment 9); assay type: in vitro ADME, pig
Method: The emulsions contained 56% oil and 214 mg starch/ml oil (corresponding to sample M in experiment 8). The total volume was 7 ml and each experiment was performed in triplicate. Methyl salicylate, dissolved in the oil phase, was used as control substance for studying the permeability into the skin.
The skin diffusion measurement was performed in a flow cell by monitoring the transport of methyl salicylate from the three different topical formulations across pigskin membrane and silicone membrane under a flow of phosphate buffer with pH 6.8. The diffusion experiments were performed in seven-chamber diffusion cells at 32° C. and the donor and receptor phase were separated by a membrane with a diffusion area of 0.64 cm^2 (9 mm Ø). About 1 g of the emulsions (donor phase) were spread uniformly on the membranes. The cells were covered with parafilm to avoid evaporation. Buffer flowed through the pump (IsmatecIPN-16, L852) with a flow of 2 ml/h. Samples were collected every two hours during 12 hours and were analyzed using a spectrophotometer (Varian Carry 50Bio) at the detection wavelength for methyl salicylate (302 nm).

adult humans = conditions: cited from earlier work

COC(=O)c1ccccc1O [methyl salicylate, Methyl salicylate]
Steady state flux of methyl salicylate ([1]; pig skin, 32° C., 56% oil starch Pickering emulsions): around 8 μg/(cm2*h)
Flux compared with buffer solutions of the same methyl salicylate concentration ([1]; similar experimental set up observed previously): nearly two times higher
LD50 (adult humans): 500 mg/kg
